Test results from patent publication US9056835B2, “LPA2 receptor-specific benzoic acid derivatives” (University of Tennessee Research Foundation, priority 2012, dated 2015).

What was measured:
[1] = target: P2Y10 (Homo sapiens, UniProt O00398); experiment: LPA receptor-mediated Ca2+ mobilization assay, P2Y10; format: cell-based; details: for inhibition of P2Y10 Ca2+ response: 10 μM, ~EC75 LPA 18:1; for P2Y10 Imax (%): inhibition by 10 μM compound of ~EC75 LPA 18:1 Ca2+ response; for EC50: agonist, Ca2+ mobilization
Sequence of P2Y10 (O00398 whole entry): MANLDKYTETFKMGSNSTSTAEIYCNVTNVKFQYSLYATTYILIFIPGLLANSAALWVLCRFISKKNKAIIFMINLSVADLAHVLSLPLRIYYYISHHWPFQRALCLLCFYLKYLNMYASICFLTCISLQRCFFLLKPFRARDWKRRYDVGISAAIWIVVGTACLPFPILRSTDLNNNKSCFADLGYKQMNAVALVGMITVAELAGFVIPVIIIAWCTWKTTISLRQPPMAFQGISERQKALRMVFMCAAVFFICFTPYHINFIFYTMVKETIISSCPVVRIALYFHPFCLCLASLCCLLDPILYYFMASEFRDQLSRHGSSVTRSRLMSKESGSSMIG
Description: Similarity searches were performed separately using each fingerprint to quantitate similarity. Hits meeting the 80% similarity threshold from each search were ranked based on the Tanimoto coefficient measure of similarity to a target molecule NSC12404, and the top 75 unique hits from each fingerprint search were selected for further analysis. The 225 compounds selected for further analysis were clustered based on Tanimoto coefficients calculated using Molecular ACCess System-key fingerprints (MACCS keys) and evaluated using the diversity subset function implemented in MOE. This selected a diverse subset of 27 compounds for biological evaluation by choosing the middle compounds in each cluster. These 27 compounds were tested in Ca^2+ mobilization assays at a concentration of 10 μM using stable cell lines individually expressing LPA2 and also in vector-transfected control cells. Hits activating LPA2 were further tested using cells expressing the other established and putative LPA GPCRs. Experimental testing of the selected compounds identified the three new selective LPA2 agonists: GRI977143, H2L5547924, and H2L5828102. […] They arbitrarily selected GRI977143 for further characterization in cell-based assays.
J Biol Chem (2009) 284(25): 17304-17319). […] The cells were loaded with Fura-2-acetoxymethyl esther (Fura-2/AM) in Krebs buffer containing 0.01% pluronic acid for 30 min and rinsed with Krebs buffer before measuring Ca^2+ mobilization. The ratio of peak emissions at 510 nm after 2 min of ligand addition was determined for excitation wavelengths of 340 nm/380 nm. All samples were run in quadruplicate. […] The half maximally effective concentration (EC50), and inhibitory constant (Ki) values were calculated by fitting a sigmoid function to dose-response data points using KaleidaGraph software (version 4.1, Synergy Software; […]).
Mouse embryonic fibroblast (MEF) cells were isolated from E13.5 LPA1&2 double knockout (DKO) embryos. MEFs were transduced with empty vector or LPA2-containing lentiviruses and selected with 1.5 μg/ml puromycin. Cells were maintained in Dulbecco's modified Eagle medium (DMEM) supplemented with 10% (V/V) fetal bovine serum (FBS), 2 mM L-glutamine, 100 U/mL penicillin, and 100 μg/mL streptomycin. Serum-free medium contained 0.1% (W/V) BSA in DMEM. The rat intestinal epithelial cell line 6 (IEC-6) was obtained from the American Type Culture Collection (Rockville, Md.) at passage 13; passages 16-21 were used in all experiments. IEC-6 cells were maintained in a humidified 37° C. incubator in an atmosphere of 90% air and 10% CO2. Growth medium consisted of DMEM supplemented with 5% heat inactivated FBS, 10 μg/mL insulin, and 50 μg/mL gentamycin. The composition of the serum-starvation medium was the same as that of the full growth medium except that it contained no FBS. The McArdle rat hepatoma cell line (RH7777) stably expressing LPA2 receptors was a gift from Dr. Fumikazu Okajima (Gunma University, Maebashi, Japan). RH7777 cells stably expressing LPA1 or LPA3 receptors were generated in-house and had been characterized earlier. Wild type and LPA receptor (LPAR) stably transfected RH7777 cells were grown in DMEM supplemented with 10% FBS and 2 mM L-glutamine in the presence of 250 μg/ml G418. Chinese hamster ovary (CHO) cells stably expressing either vector or LPA4 receptor were a kind gift from Dr. Takao Shimizu (Tokyo University; Tokyo, Japan). Cells were cultured in Ham's F12 medium containing 10% FBS, 2 mM L-glutamine, and 350 μg/ml G418. Rat neuroblastoma cells (B103) were transduced with the lentivirus harboring wild type of FLAG-LPA5 and selected with puromycin to establish the stable cell lines. The stable cells were maintained in DMEM supplemented with 10% FBS and 0.4 μg/ml puromycin. GPR87- and P2Y10-expressing CHO cells and vector-transfected control cells were a gift from Dr. Norihisha Fujita (Ritsumeikan University; Shiga, Japan). […]

[2] = system: IEC-6 cells; experiment: TNF-α/CHX-induced apoptosis, DNA fragmentation; format: cell-based, rat; details: OTP 10 μM, LPA 1 μM, GRI977143 10 μM
Description: Confluent serum-starved IEC-6 cells were treated with or without TNF-α (10 ng/ml)/cycloheximide (CHX) (20 μg/ml) in the presence of OTP (10 μM), GRI977143 (10 μM), or LPA (1 μM) for 3 h. Cells were washed twice with PBS and the quantitative DNA fragmentation assay was carried out as described previously (Valentine et al., (S)—FTY720-vinylphosphonate, an analogue of the immunosuppressive agent FTY720, is a pan-antagonist of sphingosine 1-phosphate GPCR signaling and inhibits autotaxin activity. Cell Signal (2010) 22(10): 1543-1553).
Apoptotically-challenged cells were washed twice with PBS, and a quantitative DNA fragmentation assay was carried out using a Cell Death Detection ELISA PLUS kit (Roche Diagnostics, Penzberg, Germany) and normalized to protein concentration using the BCA Protein Assay Kit (Thermo Fisher Scientific, Inc.; Rockford, Ill.) as described previously (Valentine et al., 2010). Aliquots of nuclei-free cell lysate were placed in streptavidin-coated wells and incubated with anti-histone-biotin antibody and anti-DNA peroxidase-conjugated antibody for 2 h at room temperature. After the incubation, the sample was removed, and the wells were washed and incubated with 100 μl 2,2′-azino-di[3-ethylbenzthiazolin-sulfonate substrate at room temperature before the absorbance was read at 405 nm. Results were expressed as absorbance at 405 nm/min/mg protein as detailed in our previous report (Ray et al., Mdm2 inhibition induces apoptosis in p53 deficient human colon cancer cells by activating p73- and E2F1-mediated expression of PUMA and Siva-1. Apoptosis (2011) 16(1): 35-44).

Molecule | inhibition of P2Y10 Ca2+ response [1] | P2Y10 Imax (%) [1] | EC50 [1] | DNA fragmentation induced by TNF-α/CHX [2]
O=C(O)c1cc(Cl)c(Cl)cc1C(=O)Nc1ccc2c(c1)C(=O)c1ccccc1-2 [Compound H2L5547924] | partially inhibited | 34% | – | –
O=C(O)c1ccccc1C(=O)Nc1ccc2c(c1)C(=O)c1ccccc1C2=O [Compound H2L5828102] | partially inhibited | 39% | – | –
O=C(O)c1ccccc1SCCCN1C(=O)c2cccc3cccc(c23)C1=O [GRI977143] | – | – | > 10 µM | significantly reduced
CCCCCCCC/C=C\CCCCCCCC(=O)OC[C@@H](O)COP(=O)(O)O [LPA 18:1, Lysophosphatidic acid (18:1)] | – | – | 0.029 µM | significantly reduced
O=C(O)c1ccccc1C(=O)Nc1ccc2c(c1)C(=O)c1ccccc1-2 [NSC12404] | – | – | > 10 µM | –
octadecenyl thiophosphate [OTP] | – | – | – | completely blocked
